Assay results published in US20090197880A1 (Genelabs Technologies, Inc., priority 2007, published 2009).

Assay: HCV replicon assay (luciferase) in ET (Huh-lucubineo-ET) cell line
Format: cell-based
Settings: Hepatitis C virus; tested at 5 μM; inhibition of replication relative to no compound control; ET replicon cells, luciferase 48-72 hours

Going from CCCOc1ccc(-c2cc(Cn3cc4nc(-c5ccccc5F)nc-4cn3)on2)cc1 [Compound 117, 2-(2-Fluoro-phenyl)-5-[3-(4-propoxy-phenyl)-isoxazol-5-ylmethyl]-5H-imidazo[4,5-d]pyridazine] to Fc1cccc(-c2nc3cnn(Cc4cc(-c5ccc(Cl)cc5)no4)cc-3n2)c1F [Compound 104, 5-[3-(4-Chloro-phenyl)-isoxazol-5-ylmethyl]-2-(2,3-difluoro-phenyl)-5H-imidazo[4,5-d]pyridazine], the inhibition at 5 µM falls from 99.8% to 99.7%.

For Fc1ccccc1-c1nc2cnn(Cc3cc(-c4ccc(C(F)(F)F)cc4C(F)(F)F)no3)cc-2n1 [Compound 114, 5-[3-(2,4-Bis-trifluoromethyl-phenyl)-isoxazol-5-ylmethyl]-2-(2-fluoro-phenyl)-5H-imidazo[4,5-d]pyridazine], the inhibition at 5 µM was 99.3%.

Same assay, conditions: Hepatitis C virus; tested at 10 μM; inhibition of replication relative to no compound control; ET replicon cells, luciferase 48-72 hours; read-out: % inhition at 10 μM

First: CCCOc1ccc(-c2cc(Cn3cc4nc(-c5ccccc5F)nc-4cn3)on2)cc1 [Compound 117, 2-(2-Fluoro-phenyl)-5-[3-(4-propoxy-phenyl)-isoxazol-5-ylmethyl]-5H-imidazo[4,5-d]pyridazine]
Second: OCCCOc1ccc(-c2cc(Cn3cc4nc(-c5cccc(F)c5F)nc-4cn3)on2)cc1 [Compound 193, 3-(4-{5-[2-(2,3-difluoro-phenyl)-imidazo[4,5-d]pyridazin-5-ylmethyl]-isoxazol-3-yl}-phenoxy)-propan-1-ol]
The inhibition at 10 µM of the first is higher: 99.1% for the first, 76.3% for the second.

Compared with Fc1cc(-c2cc(Cn3cc4nc(-c5cccc(F)c5F)nc-4cn3)on2)ccc1C(F)(F)F [Compound 206, 2-(2,3-Difluoro-phenyl)-5-[3-(3-fluoro-4-trifluoromethyl-phenyl)-isoxazol-5-ylmethyl]-5H-imidazo[4,5-d]pyridazine], Fc1cc(-c2cc(Cn3cc4nc(-c5cccc(F)c5F)nc-4cn3)on2)ccc1OC(F)(F)F [Compound 168, 2-(2,3-Difluoro-phenyl)-5-[3-(3-fluoro-4-trifluoromethoxy-phenyl)-isoxazol-5-ylmethyl]-5H-imidazo[4,5-d]pyridazine] is higher in inhibition at 10 µM: 98.1% for the first, 99.2% for the second.

Compared with COc1cc(OC(F)(F)F)ccc1-c1cc(Cn2cc3nc(-c4cccc(F)c4F)nc-3cn2)on1 [Compound 297, 2-(2,3-Difluoro-phenyl)-5-[3-(2-methoxy-4-trifluoromethoxy-phenyl)-isoxazol-5-ylmethyl]-5H-imidazo[4,5-d]pyridazine], COc1ccc(-c2cc(Cn3cc4nc(-c5cccc(F)c5F)nc-4cn3)on2)c(OC(F)(F)F)c1 [Compound 298, 2-(2,3-Difluoro-phenyl)-5-[3-(4-methoxy-2-trifluoromethoxy-phenyl)-isoxazol-5-ylmethyl]-5H-imidazo[4,5-d]pyridazine] is higher in inhibition at 10 µM: 90.8% for the first, 99.9% for the second.

First: COc1ccc(-c2noc(Cn3cc4nc(-c5cccc(F)c5F)nc-4cn3)n2)cc1 [Compound 228, 2-(2,3-Difluoro-phenyl)-5-[3-(4-methoxy-phenyl)-[1,2,4]oxadiazol-5-ylmethyl]-5H-imidazo[4,5-d]pyridazine]
Second: Fc1cccc(-c2nc3cnn(Cc4cc(-c5ccc(OC(F)F)cc5)no4)cc-3n2)c1F [Compound 176, 5-[3-(4-Difluoromethoxy-phenyl)-isoxazol-5-ylmethyl]-2-(2,3-difluoro-phenyl)-5H-imidazo[4,5-d]pyridazine]
The inhibition at 10 µM of the first is lower: 40.8% for the first, 99.8% for the second.

Going from Fc1cccc(-c2nc3cnn(Cc4cc(-c5ccc(OCc6ccccc6)cc5)no4)cc-3n2)c1F [Compound 173, 5-[3-(4-Benzyloxy-phenyl)-isoxazol-5-ylmethyl]-2-(2,3-difluoro-phenyl)-5H-imidazo[4,5-d]pyridazine] to O=C(O)c1ccc(COc2ccc(-c3cc(Cn4cc5nc(-c6cccc(F)c6F)nc-5cn4)on3)cc2)cc1 [Compound 162, 4-(4-{5-[2-(2,3-Difluoro-phenyl)-imidazo[4,5-d]pyridazin-5-ylmethyl]-isoxazol-3-yl}-phenoxymethyl)-benzoic Acid], the inhibition at 10 µM falls from 98.7% to 66.9%.

Compared with Nc1ccccc1-c1nc2cnn(Cc3cc(-c4ccc(C(F)(F)F)cc4C(F)(F)F)no3)cc-2n1 [Compound 119, 2-{5-[3-(2,4-Bis-trifluoromethyl-phenyl)-isoxazol-5-ylmethyl]-5H-imidazo[4,5-d]pyridazine-2-yl}-phenylamine], Fc1ccccc1-c1nc2cnn(Cc3cc(-c4ccc(C(F)(F)F)cc4C(F)(F)F)no3)cc-2n1 [Compound 114, 5-[3-(2,4-Bis-trifluoromethyl-phenyl)-isoxazol-5-ylmethyl]-2-(2-fluoro-phenyl)-5H-imidazo[4,5-d]pyridazine] is higher in inhibition at 10 µM: 0% for the first, 98.5% for the second.

Compared with C=Cc1ccc(-c2cc(Cn3cc4nc(-c5cccc(F)c5F)nc-4cn3)on2)cc1 [Compound 338, 2-(2,3-Difluoro-phenyl)-5-[3-(4-vinyl-phenyl)-isoxazol-5-ylmethyl]-5H-imidazo[4,5-d]pyridazine], Fc1cccc(-c2nc3cnn(Cc4cc(-c5ccc(Cl)cc5)no4)cc-3n2)c1F [Compound 104, 5-[3-(4-Chloro-phenyl)-isoxazol-5-ylmethyl]-2-(2,3-difluoro-phenyl)-5H-imidazo[4,5-d]pyridazine] is lower in inhibition at 10 µM: 99.9% for the first, 99.7% for the second.

Going from Fc1cccc(-c2nc3cnn(Cc4cc(-c5ccc(C#CC6CC6)cc5)no4)cc-3n2)c1F [Compound 339, 5-[3-(4-Cyclopropylethynyl-phenyl)-isoxazol-5-ylmethyl]-2-(2,3-difluoro-phenyl)-5H-imidazo[4,5-d]pyridazine] to Fc1cccc(-c2nc3cnn(Cc4cc(-c5ccc(C#CC6CCCC6)cc5)no4)cc-3n2)c1F [Compound 335, 5-[3-(4-Cyclopentylethynyl-phenyl)-isoxazol-5-ylmethyl]-2-(2,3-difluoro-phenyl)-5H-imidazo[4,5-d]pyridazine], the inhibition at 10 µM falls from 99.8% to 96.7%.

Compared with CC(=O)c1ccc(-c2cc(Cn3cc4nc(-c5cccc(F)c5F)nc-4cn3)on2)cc1 [Compound 290, 1-(4-{5-[2-(2,3-Difluoro-phenyl)-imidazo[4,5-d]pyridazin-5-ylmethyl]-isoxazol-3-yl}-phenyl)-ethanone], CC(C)Cc1ccc(-c2cc(Cn3cc4nc(-c5cccc(F)c5F)nc-4cn3)on2)cc1 [Compound 190, 2-(2,3-Difluoro-phenyl)-5-[3-(4-isobutyl-phenyl)-isoxazol-5-ylmethyl]-5H-imidazo[4,5-d]pyridazine] is higher in inhibition at 10 µM: 95.2% for the first, 99.9% for the second.

Going from FC(F)(F)c1ccc(-c2cc(Cn3cc4nc(NC5CCc6ccccc65)nc-4cn3)on2)c(C(F)(F)F)c1 (stereo not drawn) [Compound 259] to NC(=O)c1ccccc1-c1nc2cnn(Cc3cc(-c4ccc(C(F)(F)F)cc4C(F)(F)F)no3)cc-2n1 [Compound 133, 2-{5-[3-(2,4-Bis-trifluoromethyl-phenyl)-isoxazol-5-ylmethyl]-5H-imidazo[4,5-d]pyridazin-2-yl}-benzamide], the inhibition at 10 µM falls from 50.6% to 10.1%.

Compared with Fc1cccc(-c2nc3cnn(Cc4cc(-c5ccc(OCC(F)(F)F)cc5)no4)cc-3n2)c1F [Compound 295, 2-(2,3-Difluoro-phenyl)-5-{3-[4-(2,2,2-trifluoro-ethoxy)-phenyl]-isoxazol-5-ylmethyl}-5H-imidazo[4,5-d]pyridazine], FCCCOc1ccc(-c2cc(Cn3cc4nc(-c5cccc(F)c5F)nc-4cn3)on2)cc1 [Compound 207, 2-(2,3-Difluoro-phenyl)-5-{3-[4-(3-fluoro-propoxy)-phenyl]-isoxazol-5-ylmethyl}-5H-imidazo[4,5-d]pyridazine] is lower in inhibition at 10 µM: 100% for the first, 99.5% for the second.

Compared with CCCOc1ccc(-c2cc(Cn3cc4nc(-c5ccc(OC)cc5)nc-4cn3)on2)cc1 [Compound 138, 2-(4-Methoxy-phenyl)-5-[3-(4-propoxy-phenyl)-isoxazol-5-ylmethyl]-5H-imidazo[4,5-d]pyridazine], CCCOc1ccc(-c2cc(Cn3cc4nc(-c5ccco5)nc-4cn3)on2)cc1 [Compound 144, 2-Furan-2-yl-5-[3-(4-propoxy-phenyl)-isoxazol-5-ylmethyl]-5H-imidazo[4,5-d]pyridazine] is higher in inhibition at 10 µM: 48.8% for the first, 92.2% for the second.

First: Nc1nn(Cc2cc(-c3ccc(C(F)(F)F)cc3C(F)(F)F)no2)cc2nc(-c3cccc(F)c3F)nc1-2 [Compound 233, 6-[3-(2,4-Bis-trifluoromethyl-phenyl)-isoxazol-5-ylmethyl]-2-(2,3-difluoro-phenyl)-6H-imidazo[4,5-d]pyridazin-4-ylamine]
Second: Fc1ccc(F)c(-c2nc3cnn(Cc4cc(-c5ccc(C(F)(F)F)cc5C(F)(F)F)no4)cc-3n2)c1 [Compound 299, 5-[3-(2,4-Bis-trifluoromethyl-phenyl)-isoxazol-5-ylmethyl]-2-(2,5-difluoro-phenyl)-5H-imidazo[4,5-d]pyridazine]
The inhibition at 10 µM of the first is higher: 96.8% for the first, 79.3% for the second.

Fc1cccc(-c2nc3cnn(Cc4cc(-c5ccc(C(F)(F)F)cc5)on4)cc-3n2)c1F [Compound 241, 2-(2,3-Difluoro-phenyl)-5-[5-(4-trifluoromethyl-phenyl)-isoxazol-3-ylmethyl]-5H-imidazo[4,5-d]pyridazine] and CCCC(F)(F)c1ccc(-c2cc(Cn3cc4nc(-c5cccc(F)c5F)nc-4cn3)on2)cc1 [Compound 316, 5-{3-[4-(1,1-Difluoro-butyl)-phenyl]-isoxazol-5-ylmethyl}-2-(2,3-difluoro-phenyl)-5H-imidazo[4,5-d]pyridazine] are the same in inhibition at 10 µM: 99.7% for the first, 99.7% for the second.

Compared with Fc1cccc(-c2nc3cnn(Cc4cc(-c5ccc(OC(F)F)cc5OC(F)F)no4)cc-3n2)c1F [Compound 169, 5-[3-(2,4-Bis-difluoromethoxy-phenyl)-isoxazol-5-ylmethyl]-2-(2,3-difluoro-phenyl)-5H-imidazo[4,5-d]pyridazine], Fc1cccc(-c2nc3cnn(Cc4cc(-c5ccc(CCCC(F)(F)F)cc5)no4)cc-3n2)c1F [Compound 330, 2-(2,3-Difluoro-phenyl)-5-{3-[4-(4,4,4-trifluoro-butyl)-phenyl]-isoxazol-5-ylmethyl}-5H-imidazo[4,5-d]pyridazine] is higher in inhibition at 10 µM: 83.6% for the first, 99.7% for the second.

Going from CCCOc1cnc(-c2cc(Cn3cc4nc(-c5cccc(F)c5F)nc-4cn3)on2)cn1 [Compound 315, 2-(2,3-Difluoro-phenyl)-5-[3-(5-propoxy-pyrazin-2-yl)-isoxazol-5-ylmethyl]-5H-imidazo[4,5-d]pyridazine] to CN1CCN(c2ccc(-c3cc(Cn4cc5nc(-c6cccc(F)c6F)nc-5cn4)on3)cc2)CC1 [Compound 194, 2-(2,3-Difluoro-phenyl)-5-{3-[4-(4-methyl-piperazin-1-yl)-phenyl]-isoxazol-5-ylmethyl}-5H-imidazo[4,5-d]pyridazine], the inhibition at 10 µM falls from 99.3% to 57.5%.

FC(F)(F)c1ccc(-c2nc3cnn(Cc4cc(-c5ccc(C(F)(F)F)cc5C(F)(F)F)no4)cc-3n2)cc1 [Compound 135, 5-[3-(2,4-Bis-trifluoromethyl-phenyl)-isoxazol-5-ylmethyl]-2-(4-trifluoromethyl-phenyl)-5H-imidazo[4,5-d]pyridazine] gave an inhibition at 10 µM of 0.79%.
